Structures can show the parent of a compound that is named as a salt. Non-standard residues stand in square brackets, D forms with d. Residues, ends and D or L forms follow the SMILES beside them. dPhe(4-Cl) = N[C@H](Cc1ccc(Cl)cc1)C(=O)O; d2Nal = N[C@H](Cc1ccc2ccccc2c1)C(=O)O; d(hCit) = NC(=O)NCCCC[C@@H](N)C(=O)O; Lys(iPr) = CC(C)NCCCC[C@H](N)C(=O)O; d3Pal = N[C@H](Cc1cccnc1)C(=O)O
Assay: Solubility of teverelix-TFA
Format: physicochemical

solubility in water: very low solubility in water
Structure (SMILES): CC(=O)N[C@H](Cc1ccc2ccccc2c1)C(=O)N[C@H](Cc1ccc(Cl)cc1)C(=O)N[C@H](Cc1cccnc1)C(=O)N[C@@H](CO)C(=O)N[C@@H](Cc1ccc(O)cc1)C(=O)N[C@H](CCCCNC(N)=O)C(=O)N[C@@H](CC(C)C)C(=O)N[C@@H](CCCCNC(C)C)C(=O)N1CCC[C@H]1C(=O)N[C@H](C)C(N)=O [Teverelix-TFA, Ac-D-Nal-D-pClPhe-D-Pal-Ser-Tyr-D-Hci-Leu-Lys(iPr)-Pro-D-Ala-NH2] (Ac-[d2Nal][dPhe(4-Cl)][d3Pal]SY[d(hCit)]L[Lys(iPr)]P[dA]-NH2)

From patent US11719488B2, “Lyophilization process and a teverelix-TFA lyophilizate obtained thereby” (Antev Limited, priority 2018, dated 2023)
